Test results as given in patent US20240228506A1, “RIPK1 INHIBITORS AND METHODS OF USE” (Merck Sharp & Dohme LLC, priority 2021, published 2024).

Biological target: T1, GST-RIPK1 (recombinant GST-RIPK1 kinase domain (residues 1-327)) (Homo sapiens, UniProt Q13546)
T1 construct: recombinant GST-RIPK1 kinase domain (residues 1-327) enzyme; made in house; host or cells: baculovirus-transfected Sf21 insect cells
T1 sequence (Q13546 1-327): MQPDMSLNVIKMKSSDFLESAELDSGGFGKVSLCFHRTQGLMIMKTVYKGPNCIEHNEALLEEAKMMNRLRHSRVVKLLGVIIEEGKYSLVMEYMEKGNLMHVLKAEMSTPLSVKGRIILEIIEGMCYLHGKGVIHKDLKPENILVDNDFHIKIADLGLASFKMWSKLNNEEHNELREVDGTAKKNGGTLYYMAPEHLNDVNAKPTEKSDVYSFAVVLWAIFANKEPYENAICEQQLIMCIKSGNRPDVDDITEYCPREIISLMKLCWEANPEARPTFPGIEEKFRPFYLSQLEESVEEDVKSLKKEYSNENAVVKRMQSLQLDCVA
Assay: RIPK1-ADP-Glo enzymatic assay
Format: biochemical
Conditions: 25 nM GST-RIPK1, 300 μM ATP, 3 μM dephosphorylated-MBP; 30 minutes pre-incubation, 150 minutes reaction; ten-point titration
In short: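 Ten-point 1:3 titrations from 100000 nM, 1% DMSO, were preincubated 30 min with 25 nM GST-RIPK1 (1-327) before starting with 300 μM ATP plus 3 μM dephosphorylated MBP; 150 min reaction. ADP-Glo luminescence measured ATP-to-ADP conversion; EC50 by four-parameter sigmoidal regression.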

SMILES	IC50 [nM]
CC1(C(=O)N2C[C@@H]3C[C@H]2c2cncc(C#N)c2O3)CC1C(F)(F)F (stereo partly drawn) [Compound 1-46, (2S,5S)-4-[1-methyl-2-(trifluoromethyl)cyclopropane-1-carbonyl]-2,3,4,5-tetrahydro-2,5-methanopyrido[3,4-f][1,4]oxazepine-9-carbonitrile]	78
N#Cc1cncc2c1O[C@H]1C[C@@H]2N(C(=O)C23CSC(C2)C3)C1 [Compound 1-47, (2S,5S)-4-(2-thiabicyclo[2.1.1]hexane-4-carbonyl)-2,3,4,5-tetrahydro-2,5-methanopyrido[3,4-f][1,4]oxazepine-9-carbonitrile]	22
N#Cc1cc(N2CCC(F)(C(=O)N3C[C@@H]4C[C@H]3c3cncc(C#N)c3O4)CC2)ncn1 [Compound 1-52, (2S,5S)-4-(1-(6-cyanopyrimidin-4-yl)-4-fluoropiperidine-4-carbonyl)-2,3,4,5-tetrahydro-2,5-methanopyrido[3,4-f][1,4]oxazepine-9-carbonitrile]	116
COc1cc(N2CCC(F)(C(=O)N3C[C@@H]4C[C@H]3c3cncc(C#N)c3O4)CC2)ncn1 [Compound 1-53, (2S,5S)-4-(4-fluoro-1-(6-methoxypyrimidin-4-yl)piperidine-4-carbonyl)-2,3,4,5-tetrahydro-2,5-methanopyrido[3,4-f][1,4]oxazepine-9-carbonitrile]	226
N#Cc1cncc2c1O[C@H]1C[C@@H]2N(C(=O)C2(F)CCN(C(=O)c3ccccc3)CC2)C1 [Compound 1-54, (2S,5S)-4-(1-benzoyl-4-fluoropiperidine-4-carbonyl)-2,3,4,5-tetrahydro-2,5-methanopyrido[3,4-f][1,4]oxazepine-9-carbonitrile]	116
N#Cc1cncc2c1O[C@H]1C[C@@H]2N(C(=O)C2(F)CCN(c3ccnc4c(F)cnn34)CC2)C1 [Compound 1-55, (2S,5S)-4-(4-fluoro-1-(3-fluoropyrazolo[1,5-a]pyrimidin-7-yl)piperidine-4-carbonyl)-2,3,4,5-tetrahydro-2,5-methanopyrido[3,4-f][1,4]oxazepine-9-carbonitrile]	18
COc1ccnc(N2CCC(F)(C(=O)N3C[C@@H]4C[C@H]3c3cncc(C#N)c3O4)CC2)n1 [Compound 1-56, (2S,5S)-4-(4-fluoro-1-(4-methoxypyrimidin-2-yl)piperidine-4-carbonyl)-2,3,4,5-tetrahydro-2,5-methanopyrido[3,4-f][1,4]oxazepine-9-carbonitrile]	41
N#Cc1cncc2c1O[C@H]1C[C@@H]2N(C(=O)C2(F)CCN(c3ncnc4scnc34)CC2)C1 [Compound 1-57, (2S,5S)-4-(4-fluoro-1-(thiazolo[5,4-d]pyrimidin-7-yl)piperidine-4-carbonyl)-2,3,4,5-tetrahydro-2,5-methanopyrido[3,4-f][1,4]oxazepine-9-carbonitrile]	35
N#Cc1cncc2c1O[C@H]1C[C@@H]2N(C(=O)C2(F)CCN(c3nccn4ncnc34)CC2)C1 [Compound 1-58, (2S,5S)-4-(1-([1,2,4]triazolo[1,5-a]pyrazin-8-yl)-4-fluoropiperidine-4-carbonyl)-2,3,4,5-tetrahydro-2,5-methanopyrido[3,4-f][1,4]oxazepine-9-carbonitrile]	74
CC1OCCC1(C)C(=O)N1C[C@@H]2C[C@H]1c1cncc(C#N)c1O2 (stereo partly drawn) [Compound 1-59, (2S,5S)-4-(2,3-dimethyltetrahydrofuran-3-carbonyl)-2,3,4,5-tetrahydro-2,5-methanopyrido[3,4-f][1,4]oxazepine-9-carbonitrile]	587
N#Cc1cncc2c1O[C@H]1C[C@@H]2N(C(=O)C2(C(F)F)CCCO2)C1 (stereo partly drawn) [Compound 1-60, (2S,5S)-4-(2-(difluoromethyl)tetrahydro-furan-2-carbonyl)-2,3,4,5-tetrahydro-2,5-methanopyrido[3,4-f][1,4]oxazepine-9-carbonitrile]	230
N#Cc1cncc2c1O[C@H]1C[C@@H]2N(C(=O)C23CCC(CC2)CC3)C1 [Compound 1-61, (2S,5S)-4-(bicyclo[2.2.2]octane-1-carbonyl)-2,3,4,5-tetrahydro-2,5-methanopyrido[3,4-f][1,4]oxazepine-9-carbonitrile]	34
N#Cc1cncc2c1O[C@H]1C[C@@H]2N(C(=O)C23CCC(F)(CC2)CC3)C1 [Compound 1-63, (2S,5S)-4-(4-fluorobicyclo[2.2.2]octane-1-carbonyl)-2,3,4,5-tetrahydro-2,5-methanopyrido[3,4-f][1,4]oxazepine-9-carbonitrile]	58
COC1(C(=O)N2C[C@@H]3C[C@H]2c2cncc(C#N)c2O3)CCCC1 [Compound 1-65, (2S,5S)-4-(1-methoxycyclopentane-1-carbonyl)-2,3,4,5-tetrahydro-2,5-methanopyrido[3,4-f][1,4]oxazepine-9-carbonitrile]	76
N#Cc1cncc2c1O[C@H]1C[C@@H]2N(C(=O)C23CC(C(F)(F)F)(CO2)C3)C1 [Compound 1-66, (2S,5S)-4-(4-(trifluoromethyl)-2-oxabicyclo[2.1.1]hexane-1-carbonyl)-2,3,4,5-tetrahydro-2,5-methanopyrido[3,4-f][1,4]oxazepine-9-carbonitrile]	514
CC(C)(Cc1ccccc1)C(=O)N1C[C@@H]2C[C@H]1c1cncc(C#N)c1O2 [Compound 1-68, (2S,5S)-4-(2,2-dimethyl-3-phenylpropanoyl)-2,3,4,5-tetrahydro-2,5-methanopyrido[3,4-f][1,4]oxazepine-9-carbonitrile]	259
CC1(C(=O)N2C[C@@H]3C[C@H]2c2cncc(C#N)c2O3)CC2CCC1C2 (stereo partly drawn) [Compound 1-69, (2S,5S)-4-(2-methylbicyclo[2.2.1]heptane-2-carbonyl)-2,3,4,5-tetrahydro-2,5-methanopyrido[3,4-f][1,4]oxazepine-9-carbonitrile]	77
N#Cc1cncc2c1O[C@H]1C[C@@H]2N(C(=O)C2(F)CCN(c3cc(-c4ccccc4)ncn3)CC2)C1 [Compound 1-70, (2S,5S)-4-(4-fluoro-1-(6-phenylpyrimidin-4-yl)piperidine-4-carbonyl)-2,3,4,5-tetrahydro-2,5-methanopyrido[3,4-f][1,4]oxazepine-9-carbonitrile]	35

Other lines, results leading:

IC50 [nM]	SMILES
232	N#Cc1cncc2c1O[C@H]1C[C@@H]2N(C(=O)C2(F)CCN(c3cc(C4CC4)ncn3)CC2)C1 [Compound 1-71, (2S,5S)-4-(1-(6-cyclopropylpyrimidin-4-yl)-4-fluoropiperidine-4-carbonyl)-2,3,4,5-tetrahydro-2,5-methanopyrido[3,4-f][1,4]oxazepine-9-carbonitrile]
35	N#Cc1cncc2c1O[C@H]1C[C@@H]2N(C(=O)C2(F)CCN(c3ccnc(Cl)c3)CC2)C1 [Compound 1-72, (2S,5S)-4-(1-(2-chloropyridin-4-yl)-4-fluoropiperidine-4-carbonyl)-2,3,4,5-tetrahydro-2,5-methanopyrido[3,4-f][1,4]oxazepine-9-carbonitrile]
501	CC12COC(C(=O)N3C[C@@H]4C[C@H]3c3cncc(C#N)c3O4)(C1)C2 [Compound 1-73, (2S,5S)-4-(4-methyl-2-oxabicyclo[2.1.1]hexane-1-carbonyl)-2,3,4,5-tetrahydro-2,5-methanopyrido[3,4-f][1,4]oxazepine-9-carbonitrile]
347	CCC1(C(=O)N2C[C@@H]3C[C@H]2c2cncc(C#N)c2O3)CC1 [Compound 1-74, (2S,5S)-4-(1-ethylcyclopropane-1-carbonyl)-2,3,4,5-tetrahydro-2,5-methanopyrido[3,4-f][1,4]oxazepine-9-carbonitrile]
545	N#Cc1cncc2c1O[C@H]1C[C@@H]2N(C(=O)C2(C(F)(F)F)CC2)C1 [Compound 1-75, (2S,5S)-4-(1-(trifluoromethyl)cyclopropane-1-carbonyl)-2,3,4,5-tetrahydro-2,5-methanopyrido[3,4-f][1,4]oxazepine-9-carbonitrile]
780	CC1(C(=O)N2C[C@@H]3C[C@H]2c2cncc(C#N)c2O3)CC1 [Compound 1-76, (2S,5S)-4-(1-methylcyclopropane-1-carbonyl)-2,3,4,5-tetrahydro-2,5-methanopyrido[3,4-f][1,4]oxazepine-9-carbonitrile]
139	CC1(C(=O)N2C[C@@H]3C[C@H]2c2cncc(C#N)c2O3)CC(F)(F)C1 [Compound 1-77, (2S,5S)-4-(3,3-difluoro-1-methylcyclobutane-1-carbonyl)-2,3,4,5-tetrahydro-2,5-methanopyrido[3,4-f][1,4]oxazepine-9-carbonitrile]
77	N#Cc1cncc2c1O[C@H]1C[C@@H]2N(C(=O)C23CCCCC2C3)C1 (stereo partly drawn) [Compound 1-78, (2S,5S)-4-(bicyclo[4.1.0]heptane-1-carbonyl)-2,3,4,5-tetrahydro-2,5-methanopyrido[3,4-f][1,4]oxazepine-9-carbonitrile]
446	CC(C)C1(C(=O)N2C[C@@H]3C[C@H]2c2cncc(C#N)c2O3)CC1 [Compound 1-79, (2S,5S)-4-(1-isopropylcyclopropane-1-carbonyl)-2,3,4,5-tetrahydro-2,5-methanopyrido[3,4-f][1,4]oxazepine-9-carbonitrile]
332	COc1cnc(N2CCC(F)(C(=O)N3C[C@@H]4C[C@H]3c3cncc(C#N)c3O4)CC2)nc1 [Compound 1-80, (2S,5S)-4-(4-fluoro-1-(5-methoxypyrimidin-2-yl)piperidine-4-carbonyl)-2,3,4,5-tetrahydro-2,5-methanopyrido[3,4-f][1,4]oxazepine-9-carbonitrile]
